The target of series [1] is 4-hydroxy-2-keto-heptane-1,7-dioate aldolase from Acinetobacter baumannii (Acinetobacter baumannii). Put plainly: SEC; Superdex 200 Increase 10/300 GL, 10 mM HEPES pH 7.0 with 150 mM NaCl, 0.5 ml/min, 25 °C, calibrated with protein standards of 12.4-440 kDa. (In general: SEC sorts molecules by how far they enter the pores of the column.)
For series [2] the target is unchanged. Put plainly: crystal structure; 11 structures of AbHpaI (apo and with M2+ and ligands), monoclinic C2 crystals, trimer per asymmetric unit, hexamer by twofold rotational symmetry; crystals grown with sodium acetate pH 4.6, CaCl2 and 30% MPD.
Series [3] concerns AbHpaI•Zn^2+. Type of series: biochemical, Acinetobacter baumannii.
Series [4] deals with AbHpaI•Zn^2+. Format: biochemical, Acinetobacter baumannii. The source holds these as a separate data set.
Series [5] concerns AbHpaI•Zn^2+. Briefly: Steady-state aldol cleavage followed as substrate depletion by RapidFire high-throughput mass spectrometry in 10 mM HEPES pH 7.0 with 0.1 mM Zn2+ and 5 uM ((4R)-KDGal) or 40 uM ((4S)-KDGlu) enzyme, Michaelis-Menten fit. Format: biochemical. As to the method:
The aldol cleavage steady-state kinetics of (4R)-KDGal and (4S)-KDGlu catalyzed by AbHpaI•Zn^2+ were carried out using RapidFire high-throughput mass spectrometry. The reactions contained 0.1 mM ZnCl2 and the purified AbHpaI in buffer H and varying concentrations of the substrate. […] Before RapidFire analysis, the reaction was quenched by an equal volume of ACN at various times (0.5–30 min) and the quenched solution was centrifuged at 12,000g for 10 min and filtered by a 0.22-μm nylon membrane syringe filter (FilterBio Nylon Syringe Filter) to obtain the filtrate of the remaining substrate. The substrate control reaction without the enzyme was performed. […] Peak areas of the remaining substrate were measured in a negative mode with a quantitative selected ion monitoring (SIM) mode to detect the m/z 177.0 ([M-H]^−) of both (4R)-KDGal and (4S)-KDGlu, and the concentrations were determined from the calibration plot of substrate standard concentrations (0.025–3.2 mM) versus peak areas. The initial velocity (νo) of the substrate depletion from each individual concentration of substrate was calculated from the slope of the plot between the remaining substrate and time. The plots of νo versus each substrate concentration were analyzed by Michaelis–Menten equation using the Levenberg–Marquardt algorithms in GraphPad Prism version 7 software (GraphPad Software, Inc) to determine Km and kcat.

A further series relates to BxBphI. To be noted: cited from earlier work.
In series [6] the test system is AbHpaI. Format: biochemical, Acinetobacter baumannii.
The subject of series [7] is AbHpaI. Type of series: physicochemical, Acinetobacter baumannii.
Series [8] concerns AbHpaI. Type of series: binding, Acinetobacter baumannii.
Series [9] deals with AbHpaI. Format: physicochemical, Acinetobacter baumannii. This is another data set of the same source.
Series [10] relates to AbHpaI•Zn^2+. To be noted: read-out: Km (mM), aldol condensation of (4R)-KDGal synthesis, D-glyceraldehyde varied.
A further series deals with EcHpaI. To be noted: cited from earlier work.
Series [11] addresses AbHpaI•Zn^2+. Briefly: Isothermal titration calorimetry (MicroCal PEAQ-ITC) of 10 mM pyruvate into 40 uM apo-AbHpaI mixed with metal ion at 10 times its Kd, 50 mM HEPES pH 7.0, 25 °C, one-site binding model. As to the method: (§1) The Kd values for the binding of AbHpaI with ligands including M^2+ ions (Zn^2+, Co^2+, Mn^2+, Mg^2+, and Ca^2+) and pyruvate were measured by MicroCal PEAQ-ITC technique (Malvern Panalytical). Briefly, a 10-ml solution of apo-AbHpaI (200 μM) was dialyzed in 2 l of buffer F at 4 °C for 16 to 18 h. The dialyzed buffer was used to prepare a stock solution of each ligand. To measure the Kd value for the AbHpaI•M^2+ complex, a 200-μl solution of the apo-AbHpaI (40 μM) was loaded into the sample cell and the Milli-Q Type I ultrapure water was used as a reference. Three microliters of 1.5 mM ligand solution of each M^2+ in a syringe was continuously titrated into the sample cell (0.3 μM per each injection for 13 injections) until the ligand binding reached an equilibrium at 25 °C. The Microcal PEAQ-ITC analysis software was used to calculate the Kd using the one-site binding model. To determine the pyruvate binding constant to AbHpaI, a 200-μl solution of the apo-AbHpaI (40 μM) was placed in the sample cell and sequentially titrated with 3 μl of 10 mM pyruvate solution from a syringe. To determine the pyruvate binding constant to the AbHpaI•M^2+ complex, a 200-μl solution of the mixture of apo-AbHpaI (40 μM) and 10 Kd of each M^2+ was placed in the sample cell and sequentially titrated with 3 μl of a 10 mM solution mixture of pyruvate and 10 Kd of each M^2+.
In general terms: Isothermal titration calorimetry measures the heat released or taken up as one component is titrated into another.

For the next series, the target named is AbHpaI•Co^2+. The description is as above. As to the method:
as §1

Another series addresses AbHpaI•Mn^2+. Described as above. As to the method:
as §1

Read-outs that look alike come from different tables or passages of the source.

By stoichiometry N is commonly meant the number of molecules, sites or subunits per partner or assembly. The term Km denotes the concentration of substrate that gives half-maximal velocity. As usually defined, the kcat is the number of substrate molecules converted per active site and unit of time at saturation. The term ΔTm denotes the change in melting temperature against a reference sample. One may read the Kd as the free concentration of one partner at which half of the binding sites on the other are occupied at equilibrium, for simple one-to-one binding.

As to “4-hydroxy-2-keto-heptane-1,7-dioate aldolase from Acinetobacter baumannii (enzyme)”, the stoichiometry N in [1] and in series [2] was 6 throughout.
With `O=C(O)C(=O)CC(O)C(O)CO` [(4R)-KDGal, (4R)-2-keto-3-deoxy-D-galactonate], in the series with AbHpaI•Zn^2+ [3], the Km stood at 300 ± 100 µM; the kcat is 0.05 ± 0.005 s⁻¹; the “kcat of cleavage, fold faster than (4S)-KDGlu” value turned out to be 18 fold; the “kcat/Km of cleavage, fold greater than (4S)-KDGlu” value was “about 36 fold”. In addition, the “turnover number of (4R)-KDGal synthesis” value in the series on AbHpaI•Zn^2+ [4] is roughly 1.67 s⁻¹.
Take `O=C(O)C(=O)C[C@@H](O)[C@H](O)CO` [(4R)-KDGal, (4R)-2-keto-3-deoxy-D-galactonate]: the Km in the series on AbHpaI•Zn^2+ [5] is 0.3 ± 0.1 mM.
Turning to `C[C@H](O)CC(=O)C(=O)O` [(4S)-HOPA, 4-hydroxy-2-oxopentanoate], in the series with BxBphI, the “turnover number, aldol cleavage” value is 4 s⁻¹ and the “turnover number, condensation” value is 0.9 s⁻¹.
As for `O=C(O)C(=O)C[C@H](O)[C@H](O)CO` [(4S)-KDGlu, (4S)-2-keto-3-deoxy-D-gluconate], in the series with AbHpaI•Zn^2+ [5], the Km came out at 0.6 ± 0.1 mM. Also, the kcat in the series with AbHpaI•Zn^2+ [3] came out at 0.00283 ± 0.00017 s⁻¹. Further, the “(4S)-KDGlu formation as compared to (4R)-KDGal” value with AbHpaI [6] came to 0.1%.
In the case of `CC#N` [ACN, acetronitrile], the “protein stability of AbHpaI perturbed” value in the series with AbHpaI [7] worked out at 10%.
For `[Ca+2]` [Ca^2+], the “mole ratio of metal ion per AbHpaI” value in the series with AbHpaI [8] amounted to 0.1.
With `[Co+2]` [Co^2+], the “mole ratio of metal ion per AbHpaI” value with AbHpaI [8] came out at 0.8. Further, the ΔTm in the series on AbHpaI [9] is 3.4 °C.
`O=C[C@H](O)CO` [D-Glyceraldehyde, D-glyceraldehyde]: in the series with AbHpaI•Zn^2+ [4], the kcat was determined as 2.048 ± 0.293 s⁻¹. Moreover, the Km in the series on AbHpaI•Zn^2+ [10] amounted to 10.6 ± 3.6 mM.
For `C[S+](C)[O-]` [DMSO, dimethylsulfoxide], in the series with AbHpaI [7], the “protein stability of AbHpaI perturbed” value is reported as 10%.
Same read-out and setting: to `CO` [MeOH, methanol] belongs 10%.
Turning to `[Mg+2]` [Mg^2+], the “mole ratio of metal ion per AbHpaI” value in the series on AbHpaI [8] is given as 0.6.
In the case of `[Mn+2]` [Mn^2+], in the series on AbHpaI [8], the “mole ratio of metal ion per AbHpaI” value worked out at 0.6. Further, the ΔTm in the series with AbHpaI [9] was 1.7 °C.
As to `CC(=O)C(=O)O` [Pyruvate, pyruvate], the “pKa of pyruvate C3-methyl” value in the series with EcHpaI is reported as roughly 6.5. The Kd at AbHpaI•Zn^2+ [11] was found to be 980 ± 60 µM; at AbHpaI•Co^2+ it was 320 ± 40 µM; at AbHpaI•Mn^2+, 1320 ± 500 µM. The Km with AbHpaI•Zn^2+ [4] came out at 1600 ± 700 µM. The kcat with AbHpaI•Zn^2+ [4] is 1.713 ± 0.265 s⁻¹.
For the compound `[Zn+2]` [Zn^2+], in the series on AbHpaI [8], the “mole ratio of metal ion per AbHpaI” value was 1.1. In the series on AbHpaI [9], the Tm is 87 °C and the ΔTm is 5.7 °C.

The values are drawn from PMC8560999 (The Journal of Biological Chemistry, 2021).
